Reference: patent publication US20030144346A1, “Methods and compositions for regulation of 5-alpha reductase activity” (priority 1997, published 2003)
Each block holds one compound with its values, some of them ahead of it.

Key:
[1] = target: T1, type 1 human 5α-reductase (HRED1) (Homo sapiens, UniProt P18405); assay: Whole cell assay of 5α-reductase, type 1 isoenzyme; assay type: cell-based; set-up: expressed in transfected cells; host or cells: rat 1A cells infected with pMV7 retrovirus;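 further: intact rat 1A cells engineered to express the human type 1 5α-reductase isozyme serve as the enzyme source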
T1 sequence (P18405 1-259): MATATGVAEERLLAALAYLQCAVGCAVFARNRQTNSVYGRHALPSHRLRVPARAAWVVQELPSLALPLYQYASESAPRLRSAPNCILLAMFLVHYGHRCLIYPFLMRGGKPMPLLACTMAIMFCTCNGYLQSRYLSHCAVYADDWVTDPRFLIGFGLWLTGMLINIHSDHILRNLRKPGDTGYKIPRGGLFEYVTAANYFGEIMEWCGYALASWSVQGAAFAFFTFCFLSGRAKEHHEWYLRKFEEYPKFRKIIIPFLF

[2] = target: T2, type 2 human 5α-reductase (HRED2) (Homo sapiens, UniProt P31213); assay: Whole cell assay of 5α-reductase, type 2 isoenzyme; assay type: cell-based; set-up: expressed in transfected cells; host or cells: rat 1A cells infected with pMV7 retrovirus; conditions: for inhibition at 100 µM / HRED2 % Inhibition @ 100 μM: Table 7; for IC50: Table 7, read-out: HCRED2 IC50;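 on all read-outs here: intact rat 1A cells genetically modified to carry human type 2 5α-reductase served as the enzyme source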
T2 sequence (P31213 1-254): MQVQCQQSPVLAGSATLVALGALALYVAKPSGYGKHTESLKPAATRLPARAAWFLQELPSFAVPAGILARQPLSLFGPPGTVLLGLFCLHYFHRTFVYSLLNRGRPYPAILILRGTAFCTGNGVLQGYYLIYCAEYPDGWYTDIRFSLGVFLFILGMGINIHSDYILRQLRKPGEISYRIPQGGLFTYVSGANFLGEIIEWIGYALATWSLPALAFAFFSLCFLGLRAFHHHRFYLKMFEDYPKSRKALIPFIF

[3] = target: T1, type 1 human 5α-reductase (HRED1); assay: Cell free assay of 5α-reductase, microsomes of rat 1A cells expressing type 1 isoenzyme (HRED1); assay type: biochemical; set-up: expressed in transfected cells; host or cells: rat 1A cells infected with pMV7 retrovirus; microsomes;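 further: microsomes from rat 1A cells expressing human type 1 5α-reductase, conversion of radiolabeled testosterone to dihydrotestosterone quantified by thin layer chromatography with radioanalytic scanning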
[4] = target: T2, type 2 human 5α-reductase (HRED2); assay: Cell free assay of 5α-reductase, microsomes of rat 1A cells expressing type 2 isoenzyme (HRED2); assay type: biochemical; set-up: expressed in transfected cells; host or cells: rat 1A cells infected with pMV7 retrovirus; microsomes;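 further: labeled testosterone and its product dihydrotestosterone measured in microsomal reaction extracts via thin layer chromatography plus radioanalytic scanning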
[5] = whole cell assay, Table 7, read-out: HCRED1 IC50
[6] = read-out: HRED1 % Inhibition @ 100 μM
[7] = read-out: HRED2 % Inhibition @ 100 μM
[8] = read-out: HRED1 % Inhibition @ 100 uM
[9] = read-out: HRED2 % Inhibition @ 100 uM
[10] = 100 uM, cell free assay, Table 1
[11] = cell free assay, Table 2 catechols, read-out: HRED1 IC50
[12] = cell free assay, Table 2 catechols, read-out: HRED2 IC50

Compound: CCCCCC#CCC#CCC#CCC#CCCCC(=O)O [5,8,11,14-Eocpsatetraynoic Acid, 5,8,11,14-eicosatetraynoic acid]
inhibition at 100 µM ([1]; whole cell assay, Table 7): 67%
IC50 [1, 5]: 22 µM
inhibition at 100 µM [2]: 86%
IC50 [2]: 2 µM
inhibition at 100 µM ([3]; 100 μM, cell free assay, Table 6, read-out: HRED1 % Inhibition @ 100 μM): 97%
IC50 ([3]; cell-free assay, read-out: IC50, type 1 isoenzyme): 15 µM
inhibition at 100 µM ([4]; 100 μM, cell free assay, Table 6, read-out: HRED2 % Inhibition @ 100 μM): 81%
IC50 ([4]; cell-free assay, read-out: IC50, type 2 isoenzyme): 3 µM

Compound: O=C1c2ccccc2C(=O)c2c1cc(S(=O)(=O)[O-])c(O)c2O.[Na+] [Alizarin Red 5, Alizarin Red S]
HRED1 % Inhibition @ 100 μM ([1]; whole cell assay, Table 7): 28%
IC50 [2]: > 100 µM
IC50 ([4]; cell free assay, Table 4 quinones, read-out: HRED2 IC50): > 100 µM

Compound: O=C1c2ccccc2C(=O)c2c1ccc(O)c2O [Alizarin]
inhibition at 100 µM ([1]; whole cell assay, Table 7): 75%
inhibitory activity in the whole cell assay, type 1 isoenzyme, in words ([1]; whole cell assay): very effective inhibitor
IC50 [1, 5]: 6 µM
inhibition at 100 µM [2]: 27%
IC50 [2]: > 100 µM
IC50 ([3]; cell free assay, Table 4 quinones, read-out: HRED1 IC50): 3 µM
inhibitory activity against type 1 isoenzyme, in words ([3]; cell-free assay): very effective inhibitor
inhibition at 100 µM [3, 6]: 95%
inhibition at 100 µM [4, 7]: 54%

Compound: Oc1ccc2c(O)c3ccccc3cc2c1O [Anthrarobin]
IC50 [1]: 6 µM
inhibition at 100 µM ([1]; whole cell assay, Table 7): 91%
inhibitory activity in the whole cell assay, type 1 isoenzyme, in words ([1]; whole cell assay): active
inhibition at 100 µM [2]: 31%
IC50 [2]: > 100 µM
IC50 [3]: 4 µM
inhibition at 100 µM [3, 8]: 99%
inhibition at 100 µM [3, 6]: 99%
IC50 ([3]; read-out: HRED1 IC50, cell free assay, Table 4 quinones): 4 µM
IC50 [4]: 50 µM
inhibition at 100 µM [4, 9]: 97%
inhibition at 100 µM [4, 7]: 97%
IC50 ([4]; read-out: HRED2 IC50, cell free assay, Table 4 quinones): 50 µM

Compound: Oc1ccccc1O [Catechol]
inhibition at 100 µM ([1]; whole cell assay, Table 7): 9%
IC50 [1, 5]: > 100 µM
inhibition at 100 µM [2]: 3%
IC50 [2]: > 100 µM
IC50 [3, 11]: > 100 µM
inhibition at 100 µM [3, 8]: 5%
IC50 [4, 12]: > 100 µM
inhibition at 100 µM [4, 9]: 0%

Second part, the compound after the results:

HRED1 % Inhibition @ 100 μM ([1]; whole cell assay, Table 7): 24%
IC50 [1, 5]: > 100 µM
HRED2 % Inhibition @ 100 μM [2]: 18%
IC50 [2]: > 100 µM
Compound: CC/C=C\C/C=C\C/C=C\CCCCCCCC(=O)OC [Alpha-Linolenic Acid Me Ester]

HRED1 % Inhibition @ 100 μM ([1]; whole cell assay, Table 7): 64%
IC50 [1, 5]: 64 µM
inhibitory activity in the whole cell assay, type 2 isoenzyme, in words [2]: significant inhibitory activity
HRED2 % Inhibition @ 100 μM [2]: 93%
IC50 [2]: 5 µM
HRED1 % Inhibition @ 100 uM [3, 10]: 50%
IC50 ([3]; cell free assay, Table 1 flavanoids, read-out: HRED1 IC50): > 100 µM
HRED2 % Inhibition @ 100 uM [4, 10]: 74%
IC50 ([4]; cell free assay, Table 1 flavanoids, read-out: HRED2 IC50): 17 µM
inhibitory activity against type 2 isoenzyme, in words ([4]; cell-free assay): effective inhibitors
Compound: COc1ccc(-c2coc3cc(O)cc(O)c3c2=O)cc1 [Biochanin a]

inhibitory activity in the whole cell assay, type 1 isoenzyme, in words ([1]; whole cell assay): active
IC50 [1, 5]: 8 µM
IC50 [2]: 7 µM
IC50 [3, 11]: 26 µM
IC50 [4, 12]: > 100 µM
Compound: O=C(/C=C/c1ccc(O)c(O)c1)OCCc1ccccc1 [Caffeic Acid Phenethyl Ester]

inhibition at 100 µM ([1]; whole cell assay, Table 7): 99%
inhibition at 100 µM ([3]; 100 uM, cell free assay, Table 3, read-out: HRED1 % Inhibition @ 100 uM): 95%
inhibitory activity against type 1 isoenzyme, in words ([3]; cell-free assay): very effective inhibitor
inhibitory activity against type 2 isoenzyme, in words ([4]; cell-free assay): very effective inhibitor
inhibition at 100 µM [4, 9]: 87%
Compound: COc1cc(/C=C/C(=O)CC(=O)/C=C/c2ccc(O)c(OC)c2)ccc1O [Curcumin]

HRED1 % Inhibition @ 100 μM ([1]; whole cell assay, Table 7): 9%
inhibitory activity in the whole cell assay, type 2 isoenzyme, in words [2]: significant inhibitory activity
inhibitory activity against type 2 isoenzyme, in words ([4]; cell-free assay): effective inhibitors
Compound: O=c1c(-c2ccc(O)cc2)coc2cc(O)ccc12 [Daidzein]

inhibition at 100 µM ([1]; whole cell assay, Table 7): 99%
inhibitory activity in the whole cell assay, type 1 isoenzyme, in words ([1]; whole cell assay): active
IC50 [1, 5]: 3 µM
inhibition at 100 µM [2]: 98%
IC50 [2]: 7 µM
inhibition at 100 µM ([3]; 100 uM, cell free assay, Table 2, read-out: HRED1 % Inhibition @ 100 uM): 88%
IC50 [3, 11]: 43 µM
inhibition at 100 µM ([4]; 100 uM, cell free assay, Table 2, read-out: HRED2 % Inhibition @ 100 uM): 36%
IC50 [4, 12]: > 100 µM
Compound: CCCCCCCCCCCCOC(=O)c1cc(O)c(O)c(O)c1 [Dodecylgallate]
